Data on two compounds can be found in US12618082B2, “Engineered muscle targeting compositions” (priority 2020, dated 2026).

Entries after “also recorded” stand apart in the source; their conditions may differ.

Assay [1] has as its target T1, αV-containing integrin heterodimers (Mus musculus, UniProt P43406).
T1 construct: endogenous in cells; host or cells: mouse primary myotubes differentiated from C57BL/6J satellite cells
T1 sequence (P43406 31-1044): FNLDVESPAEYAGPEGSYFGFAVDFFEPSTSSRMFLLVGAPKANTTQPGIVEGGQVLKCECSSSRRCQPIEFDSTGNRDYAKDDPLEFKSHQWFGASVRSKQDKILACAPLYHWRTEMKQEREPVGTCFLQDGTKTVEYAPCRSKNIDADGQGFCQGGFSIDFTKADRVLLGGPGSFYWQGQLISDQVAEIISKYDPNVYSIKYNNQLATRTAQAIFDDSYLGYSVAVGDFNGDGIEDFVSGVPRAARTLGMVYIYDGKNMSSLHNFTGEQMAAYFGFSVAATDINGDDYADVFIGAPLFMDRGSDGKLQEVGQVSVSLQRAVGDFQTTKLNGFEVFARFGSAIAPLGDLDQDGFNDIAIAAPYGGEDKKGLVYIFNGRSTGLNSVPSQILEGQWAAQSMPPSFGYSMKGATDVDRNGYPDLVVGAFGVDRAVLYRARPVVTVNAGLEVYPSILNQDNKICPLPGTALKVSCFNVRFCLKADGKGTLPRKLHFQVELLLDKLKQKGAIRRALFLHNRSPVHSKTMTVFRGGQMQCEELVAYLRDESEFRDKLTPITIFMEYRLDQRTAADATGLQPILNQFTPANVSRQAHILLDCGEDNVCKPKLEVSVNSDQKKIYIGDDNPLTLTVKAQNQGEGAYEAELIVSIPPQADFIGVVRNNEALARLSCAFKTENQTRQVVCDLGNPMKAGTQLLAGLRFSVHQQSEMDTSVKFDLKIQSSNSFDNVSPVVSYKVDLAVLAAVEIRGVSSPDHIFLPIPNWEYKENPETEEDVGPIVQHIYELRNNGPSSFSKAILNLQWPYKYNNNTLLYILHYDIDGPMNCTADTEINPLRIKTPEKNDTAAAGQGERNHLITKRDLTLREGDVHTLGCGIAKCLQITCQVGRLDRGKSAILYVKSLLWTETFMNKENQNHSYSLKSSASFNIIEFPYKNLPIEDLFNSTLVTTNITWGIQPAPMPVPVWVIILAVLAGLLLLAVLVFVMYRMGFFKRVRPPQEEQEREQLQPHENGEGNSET
Put plainly: Small molecule pan-αV integrin antagonist inhibition of transduction, mouse primary myotubes. It is filed as cell-based. The conditions noted are these: increasing concentrations of the antagonist; capsid named in the value. The protocol: (§1) Pan-alpha V integrin antagonists CWHM-12 and GLPG0187 (MedChem Express), or anti-αVβ6 antibody (ab77906, abcam) were diluted in DMEM containing 2% horse serum at the specified concentrations. Media was removed from differentiated myotubes and replaced with the diluted inhibitors, after which the myotubes were incubated on ice for 30 minutes to inhibit endocytosis. Following this incubation, AAV9-, MyoAAV-, or EMyoAAV-CK8-Nluc were added to the cells at 5E+3 vg/cell and the plates were transferred back to the tissue culture incubators. 24 hours after transduction, luciferase intensity was measured with the Nano-Glo Luciferase Assay (Promega).

Assay [2] addresses T2, αV-containing integrin heterodimers (Homo sapiens, UniProt P06756).
T2 construct: endogenous in cells; host or cells: human primary skeletal muscle myotubes differentiated from Lonza myoblasts
Put plainly: Small molecule pan-αV integrin antagonist inhibition of transduction, human primary myotubes. The format is cell-based. Conditions: increasing concentrations of the antagonist; capsid named in the value. The method, then: as §1

T2 sequence (P06756 31-889 limits assumed): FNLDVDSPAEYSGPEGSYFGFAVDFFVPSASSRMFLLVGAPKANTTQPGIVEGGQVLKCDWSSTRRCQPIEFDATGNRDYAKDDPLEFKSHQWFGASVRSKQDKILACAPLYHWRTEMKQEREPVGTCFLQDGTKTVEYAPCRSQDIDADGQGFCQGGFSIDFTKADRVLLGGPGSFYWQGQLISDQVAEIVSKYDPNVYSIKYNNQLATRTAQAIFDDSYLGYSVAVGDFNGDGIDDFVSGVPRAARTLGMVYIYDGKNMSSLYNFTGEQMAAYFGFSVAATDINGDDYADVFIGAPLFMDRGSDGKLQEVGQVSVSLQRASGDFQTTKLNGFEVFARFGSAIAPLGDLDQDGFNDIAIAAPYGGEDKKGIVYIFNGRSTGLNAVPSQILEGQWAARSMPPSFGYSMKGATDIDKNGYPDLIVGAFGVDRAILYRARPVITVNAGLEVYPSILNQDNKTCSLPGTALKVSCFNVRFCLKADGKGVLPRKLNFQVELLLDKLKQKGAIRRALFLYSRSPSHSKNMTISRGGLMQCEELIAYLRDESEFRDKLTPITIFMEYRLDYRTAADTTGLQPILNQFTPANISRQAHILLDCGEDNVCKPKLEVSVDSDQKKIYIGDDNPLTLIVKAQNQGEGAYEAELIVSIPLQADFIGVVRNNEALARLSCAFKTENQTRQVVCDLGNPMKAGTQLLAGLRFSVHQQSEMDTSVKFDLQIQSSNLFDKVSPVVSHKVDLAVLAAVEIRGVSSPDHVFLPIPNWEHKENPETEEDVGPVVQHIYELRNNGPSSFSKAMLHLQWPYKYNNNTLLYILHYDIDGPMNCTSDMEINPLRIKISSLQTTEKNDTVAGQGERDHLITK
T2 sequence (P06756 891-1048 limits assumed): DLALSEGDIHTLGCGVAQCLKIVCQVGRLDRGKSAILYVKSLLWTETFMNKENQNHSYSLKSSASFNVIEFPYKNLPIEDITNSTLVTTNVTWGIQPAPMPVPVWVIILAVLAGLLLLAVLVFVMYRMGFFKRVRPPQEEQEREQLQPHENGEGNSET

In the case of `COc1ccc(S(=O)(=O)N[C@@H](CNc2nc(C)nc(N3CCC(c4ccc5c(n4)NCCC5)CC3)c2C)C(=O)O)cc1` [GLPG-0187], the “effect of the pan-αV integrin antagonist on AAV transduction efficiency, mouse primary myotubes” value in assay [1] is given as “impeded MyoAAV 1A transduction in a dose-dependent manner”. The “effect of the pan-αV integrin antagonist on AAV transduction efficiency, human primary myotubes” value in assay [2] is on record as “dose-dependent decrease in the transduction efficiency of EMyoAAV; also recorded: impeded MyoAAV 1A transduction in a dose-dependent manner; also recorded: dose-dependent decrease in the transduction efficiency of MyoAAV 2A; also recorded: dose-dependent decrease in transduction for all the 4 variants”.
On to `CC(C)(C)c1cc(Br)cc([C@H](CC(=O)O)NC(=O)CNC(=O)c2cc(O)cc(NC3=NCC(O)CN3)c2)c1` (stereo partly shown) [CWHM-12], for which, in assay [1], the “effect of the pan-αV integrin antagonist on AAV transduction efficiency, mouse primary myotubes” value is recorded as “impeded MyoAAV 1A transduction in a dose-dependent manner”. In addition, the “effect of the pan-αV integrin antagonist on AAV transduction efficiency, human primary myotubes” value in assay [2] is “impeded MyoAAV 1A transduction in a dose-dependent manner”.
